For one data set, the system named is Lister Hooded rats. Kind of data set: Contextual Fear Conditioning after infusion into dorsal hippocampus. Type of data set: in vivo, rat. The method, then:
(*p<0.05, **p<0.01, FLSD test).
The subjects were adult male Lister hooded rats weighing 280-350 g. They were housed in pairs, in holding rooms maintained at 21° C. on a reversed-light cycle (12 h light/dark; lights on at 10:00 P.M.). All experiments were conducted in the dark period of the rats. Food and water were freely available throughout the experiment. Steel double guide cannulae aimed at the dorsal hippocampus (AP−3.50, relative to bregma) were surgical implanted under anaesthesia at least one week prior to behavioural training and microinfusions. Bilateral infusions with either 2 mg/ml CPP-SCR or CPP-RB5, 20 min prior to conditioning (pH 7.0, […]) via the chronically indwelling cannula were carried out in awake rats using a syringe pump, connected to injectors (28 gauge, projecting 1 mm beyond the guide cannulae) by polyethylene tubing.
Conditioning was performed in one of two distinct contexts. These contexts were designed to differ in a number of distinctive characteristics including size, spatial location, odour and lighting.
Rat protocol: during the 3 min conditioning training trial, rats received a single scrambled footshock (0.5 mA for 2 s) 2 min after being placed into one of the conditioning contexts (CtxA). All rats were returned to the home cages after conditioning. Retrieval tests 3 hr (post-retrieval short-term memory, STM), or 2 days (long-term memory, LTM) after recall again consisted of exposing the rat to the conditioning context for 2 min.
For all protocols, freezing behavior served as a measure of conditioned fear to the context during the conditioning and retrieval tests of the behavioural procedures. This was video-recorded and quantified by an observer blind to the experimental group. One unit of freezing was defined as a continuous absence of movement other than that required for respiration in 1 s sampled every 10 s.

The next data set concerns WT mice. Kind of data set: Novel Object Recognition Test (NOR). Type of data set: in vivo, mouse. Particulars: for memory formation and consolidation in NOR: 24, 48, 72 and 120 h (up to 5 days). As to the method:
a) After a 5 min habituation session in the empty arena on day 1, mice were injected with RB5 (20 mg/kg) or vehicle one hour before the training session with two identical objects on day 2 and were then evaluated for their long-term memory on subsequent days. Discrimination Index (D.I.) was tested at different time points 24, 48, 72, and 120 hrs (a) and also up to 168 h (b). […] On subsequent days, while the RB5 group remained high, the Scramble group returned to basal levels. *p<0.01**p<0.0001. […] At 24 h, D.I. of RB5 group was highly significant (Independent sample t-test t26=4.428 P<0.01, SCR (n=14) RB5 (=14)) as well as at 48 h (Independent sample t-test t38=4.210 P<0.0001, SCR (n=18) RB5 (=22)). […] P<0.001, P<0.01.
The test was performed in an open square box (45×45×45 cm), placed in a quiet room with dim light. The objects used were: parallelepipeds in metal and glass vials filled with water. They had no natural significance for mice and they had never been associated with reinforcement before. The protocol required three days and it was performed as follows:
First day: the mice were individually placed in the empty arena for 5 min in order to familiarize with it and to measure their anxiety (thigmotaxis trial). The percentage of thigmotaxis is calculated as the time spent in the peripheral zone out of the total time spent in the arena (300 sec.). Animals showing a thigmotaxis>90% are discarded from the sample because considered biased for anxiety.
Second day: Mice were injected with either […] CPP-SCR or CPP-RB5 1 h prior to training and then they were placed into the arena for 10 minutes, where they were allowed to explore two identical objects (training trial). Therefore, two different measures (in seconds) for Left Object and Right Object were obtained. […] Then, percentages of exploration for each object were calculated as: the time spent exploring LO or RO, out of the total time of exploration (RO+LO). According to these percentages, experimenter decided where to place the novel object for the test trial.
Third day: one of the two identical objects (Parallelepiped) was changed with a new object (Vial) and the mice were allowed to explore them for 10 minutes (test trial).
Times of exploration for the familiar object (FO) and for the novel object (NO) were separately recorded, with the same procedure as for the training trial. A cut-off of 6 seconds was also considered. In order to attest recognition memory, a discrimination index (D.I.) was calculated as (total time of exploration of NO−total time of exploration of FO)/total time of exploration of (FO+NO). D.I. index is comprised between −1 and +1. A D.I. of 1 would mean perfect memory retention for the […]. Conversely, the more time the animal spends exploring FO the lower will be the D.I. value, meaning poor memory retention for FO. SMART software (Panlab, Barcelona, Spain) was used to run the experiment.

Data set [1] can be described thus: RB5 brain levels by HPLC-MS/MS after single i.p. administration. It counts as in vivo, mouse. Particulars: single i.p. 20 mg/kg, mass spectrometry. The method, then: Bioavailability of RB5 in the mouse brain was determined at different time intervals (1, 3, 6, 12 h) after a single i.p. administration of 20 mg/kg. RB5 was then quantified in mouse brain using HPLC-MS/MS. Brain samples were homogenized with 1:4 w/v of 50% acetonitrile, 5% TFA in water with an homogenizer ultra-turrax and then centrifuged at 13000 rpm for 10 min at 4° C. The supernatant was collected and centrifuged at 13000 rpm for 2 minutes at 4° C. The supernatant was then collected in ice, extracted using Sep-Pak cartridges C18, lyophilised and kept at 4° C. before HPLC-MS/MS analysis. Immediately before the analysis samples were suspended in 100 μL of 0.1% HCOOH in water/8% acetonitrile in auto-sampler vials.
HPLC-MS/MS analysis was performed using a system consisting of an Agilent 1200 series HPLC system coupled with an Agilent 6410 Triple Quadruple mass spectrometer. Mass Hunter Workstation v. […] The quantification of mouse brain levels of RB5 and scramble peptides was carried out using an internal standard curve with peptide concentrations ranging from 0.1 to 4 ng per μl. […]
Peptides were then detected on an Agilent 6410 QQQ mass spectrometer using the following parameters: positive ion mode, 5 kV capillary voltage, cone voltage 500 V, gas flow rate 8 L/min at 350° C., nebulizer gas pressure 40 PSI at 350° C., well time 75 msec and Q1 and Q3 set to unit resolution.

The mark [2] stands for this setting: 2 mg/ml bilateral dorsal CA1 infusion 20 min prior to conditioning.
Where [3] appears, read: 2 mg/ml infusion into dorsal hippocampus prior to CFC.

“Also recorded” adds a separate entry of the source.

`CSCC[C@H](NC(=O)[C@H](CCC(=O)O)NC(=O)[C@@H](NC(=O)[C@H](CCC(=O)O)NC(=O)CNC(=O)[C@@H]1CCCN1C(=O)[C@@H](NC(=O)CNC(=O)[C@@H]1CCCN1C(=O)CNC(=O)[C@@H](NC(=O)CNC(=O)[C@H](CCC(=O)O)NC(=O)[C@@H](NC(=O)[C@H](CCCNC(=N)N)NC(=O)[C@H](CCCNC(=N)N)NC(=O)[C@@H]1CCCN1C(=O)[C@H](CCC(=O)O)NC(=O)CNC(=O)CNC(=O)CNC(=O)CNC(=O)CNC(=O)[C@H](CCC(N)=O)NC(=O)[C@@H]1CCCN1C(=O)[C@@H]1CCCN1C(=O)[C@H](CCCNC(=N)N)NC(=O)[C@H](CCCNC(=N)N)NC(=O)[C@H](CCCNC(=N)N)NC(=O)[C@H](CCC(N)=O)NC(=O)[C@H](CCCNC(=N)N)NC(=O)[C@H](CCCNC(=N)N)NC(=O)[C@H](CCCCN)NC(=O)[C@H](CCCCN)NC(=O)[C@H](CCCNC(=N)N)NC(=O)CNC(C)=O)[C@@H](C)O)C(C)C)C(C)C)C(C)C)C(=O)N[C@H](C(=O)N[C@@H](CCCCN)C(=O)NCC(=O)N[C@@H](CCC(N)=O)C(=O)N1CCC[C@H]1C(=O)N[C@@H](Cc1ccccc1)C(=O)N[C@@H](CC(=O)O)C(=O)N[C@@H](C(=O)O)C(C)C)C(C)C` [RB5]: in the data set on Lister Hooded rats (setting [2]), the “STM and LTM (freezing at 3 hr and 2 days after training)” value was “increase in both STM and LTM”. Also, the “post footshock (postUS) freezing behaviour during fear conditioning” value in the data set with Lister Hooded rats (setting [2]) is listed as “increase”. Further, the “memory formation and consolidation in NOR” value in the data set on WT mice is listed as “significantly enhanced”. Also, the “Discrimination Index (D.I.)” value with WT mice (24 h, 20 mg/kg 1 h before training) is given as “significantly higher than the Scramble group”; in the data set with WT mice (48 h, vs chance level), “greatly above it”; in the data set with WT mice (72 h), “remained highly significant”; in the data set with WT mice (120 h), “still highly significant”. Further, the “Discrimination Index (D.I.) / performance” value in the data set with WT mice (168 h) is on record as “dropped to basal levels indistinguishable from SCR group; also recorded: went down to basal levels indistinguishable from SCR group”. Also, in data set [1], the “time up to which high RB5 brain levels were detected” value was “up to 6 h”.

On to “GRKKRRQRRRPPQGGGGGEPRRTEGVGPGVPGEVEMVKGQPFDV (listed as Homo sapiens) [CPP-RB5]”, for which, in the data set with Lister Hooded rats (setting [3]), the “acquisition of contextual fear memory” value is on record as “enhanced” and the long-term fear memory entry is listed as “stronger long-term fear memory”. Besides, the “memory formation and consolidation in NOR” value in the data set on WT mice is listed as “greater performances in remembering the object”.

The record behind these values is US11471502B2, “Neuroprotective peptide” (UNIVERSITY COLLEGE CARDIFF C[…], priority 2017, dated 2022).
